Laboratory results reported in ChEMBL document CHEMBL1156964, “Bioconjugates of curcumin display improved protection against glutathione depletion mediated oxidative stress in a dopaminergic neuronal cell line: Implications for Parkinson's disease” (2010).
Active and inactive are the calls of the source. The rule behind the calls is not given here.

Experiments:
[1] = Neuroprotective effect against rat N27 cells assessed as reduction of BSO-induced increase in reactive oxygen species level at 0.5 uM treated 24 hrs after BSO withdrawal by DCFDA fluorescence assay relative to control; format: functional; parameters: scale not given: the % may be the effect or the level left
[2] = Neuroprotective effect in rat N27 cells assessed as Inhibition of BSO-induced GSH depletion at 0.5 uM after 24 hrs by DTNB recycling method relative to control; format: functional; conditions: N27, 24 h
[3] = Neuroprotective effect against rat N27 cells assessed as reduction of BSO-induced increase in MDA level at 0.5 uM by thiobarbituric acid reaction method after 24 hrs BSO withdrawal relative to control; format: functional; parameters: scale not given: the % may be the effect or the level left
[4] = Neuroprotective effect against rat N27 cells assessed as reduction of BSO-induced increase in reactive oxygen species level at 0.5 uM after 24 hrs by DCFDA fluorescence assay relative to control; format: functional; parameters: scale not given: the % may be the effect or the level left
N27 [5] = assay: Neuroprotective effect against rat N27 cells assessed as reduction of BSO-induced reduction of GST activity at 0.5 uM treated 24 hrs after BSO withdrawal relative to control; format: functional, cell-based
[6] = Neuroprotective effect against rat N27 cells assessed as reduction of BSO-induced increase in hydrogen peroxide level at 0.5 uM after 24 hrs using FOX1 reagent; format: functional; parameters: scale not given: the % may be the effect or the level left
N27 [7] = assay: Increase in ROS level in rat N27 cells at 0.5 uM by DCFDA fluorescence assay; format: functional, cell-based
N27 [8] = assay: Neuroprotective effect against rat N27 cells assessed as reduction of BSO-induced reduction of GST activity at 0.5 uM relative to control; format: functional, cell-based
[9] = Neuroprotective effect against rat N27 cells assessed as reduction of BSO-induced increase in MDA level at 0.5 uM after 24 hrs by thiobarbituric acid reaction method relative to control; format: functional; parameters: scale not given: the % may be the effect or the level left
[10] = Increase in GSH level in rat N27 cells at 0.5 uM after 24 hrs; format: functional
[11] = Neuroprotective effect against rat N27 cells assessed as reduction of BSO-induced increase in hydrogen peroxide level at 0.5 uM treated 24 hrs after BSO withdrawal using FOX1 reagent relative to control; format: functional; parameters: scale not given: the % may be the effect or the level left

Structure (SMILES): COc1cc(/C=C/C(=O)CC(=O)/C=C/c2ccc(O)c(OC)c2)ccc1O [CURCUMIN]
- Activity [1]: 50%
- inhibition at 0.5 µM [2]: 78%
- Activity [3]: 65%
- Activity [4]: 45%
- Activity (N27 [5]): Active
- Activity [6]: 50%
- Activity (N27 [7]): inactive
- Activity (N27 [8]): Active
- Activity [9]: 40%
- Activity [10]: 30%

Structure (SMILES): COc1cc(/C=C/C(=O)CC(=O)/C=C/c2ccc(OC(=O)[C@@H](N)CCC(=O)O)c(OC)c2)ccc1OC(=O)[C@@H](N)CCC(=O)O
- Activity [1]: 80%
- inhibition at 0.5 µM [2]: 83%
- Activity [3]: 90%
- Activity [4]: 90%
- Activity (N27 [5]): Active
- Activity [6]: 50%
- Activity (N27 [7]): inactive
- Activity (N27 [8]): Active
- Activity [9]: 50%
- Activity [10]: 64%

Structure (SMILES): COc1cc(/C=C/C(=O)CC(=O)/C=C/c2ccc(OC(=O)/C=C/C=C/c3ccc(O)c(O)c3)c(OC)c2)ccc1OC(=O)/C=C/C=C/c1ccc(O)c(O)c1
- Activity [1]: 55%
- inhibition at 0.5 µM [2]: 78%
- Activity [3]: 75%
- Activity [4]: 65%
- Activity (N27 [5]): Active
- Activity [6]: 50%
- Activity (N27 [7]): inactive
- Activity (N27 [8]): Active
- Activity [9]: 50%
- Activity [10]: 25%

Structure (SMILES): COc1cc(/C=C/C(=O)CC(=O)/C=C/c2ccc(OC(=O)[C@@H](N)C(C)C)c(OC)c2)ccc1OC(=O)[C@@H](N)C(C)C
- Activity [1]: 70%
- inhibition at 0.5 µM [2]: 72%
- Activity [3]: 80%
- Activity [4]: 60%
- Activity (N27 [5]): Active
- Activity [11]: 80%
- Activity (N27 [7]): inactive
- Activity (N27 [8]): Active
- Activity [9]: 30%
- Activity [10]: 50%
